Assay results taken from ChEMBL document CHEMBL1765071, “Single photon emission computed tomography/positron emission tomography imaging and targeted radionuclide therapy of melanoma: new multimodal fluorinated and iodinated radiotracers” (J Med Chem, 2011).

Tests used:
Mus musculus [1] = experiment: Biodistribution in mouse B16F0 cells bearing C57B16 mouse tumor at 1.26 to 5.29 MBq, iv after 3 hrs; format: ADME, organism-based, Neoplasm; settings: in vivo
Mus musculus [2] = experiment: Biodistribution in mouse B16F0 cells bearing C57B16 mouse tumor at 1.26 to 5.29 MBq, iv after 1 hr; format: ADME, organism-based, Neoplasm; settings: in vivo
Mus musculus [3] = experiment: Biodistribution in mouse B16F0 cells bearing C57B16 mouse tumor at 1.26 to 5.29 MBq, iv after 7 days; format: ADME, organism-based, Neoplasm; settings: in vivo, 168 h
Mus musculus [4] = experiment: Biodistribution in mouse B16F0 cells bearing C57B16 mouse tumor at 1.26 to 5.29 MBq, iv after 72 hrs; format: ADME, organism-based, Neoplasm; settings: in vivo
Mus musculus [5] = experiment: Biodistribution in mouse B16F0 cells bearing C57B16 mouse tumor at 1.26 to 5.29 MBq, iv after 24 hrs; format: ADME, organism-based, Neoplasm; settings: in vivo
Mus musculus [6] = experiment: Biodistribution in mouse B16F0 cells bearing C57B16 mouse tumor at 1.26 to 5.29 MBq, iv after 5 days; format: ADME, organism-based, Neoplasm; settings: in vivo, 120 h
Mus musculus [7] = experiment: Biodistribution in mouse B16F0 cells bearing C57B16 mouse tumor at 1.26 to 5.29 MBq, iv after 6 hrs; format: ADME, organism-based, Neoplasm; settings: in vivo
Mus musculus [8] = experiment: Biodistribution in mouse B16F0 cells bearing C57B16 mouse tumor at 1.26 to 5.29 MBq, iv after 10 days; format: ADME, organism-based, Neoplasm; settings: in vivo, 240 h
Mus musculus [9] = experiment: Biodistribution in mouse B16F0 cells bearing C57B16 mouse tumor at 1.26 to 5.29 MBq, iv after 14 days; format: ADME, organism-based, Neoplasm; settings: in vivo, 336 h
Mus musculus [10] = experiment: Biodistribution in mouse B16F10 cells bearing C57B16 mouse tumor assessed per volume of tissue at 7.4 MBq, iv after 4 hrs; format: ADME, organism-based, Neoplasm, B16-F10; settings: in vivo
Mus musculus [11] = experiment: Biodistribution in mouse B16F0 cells bearing C57B16 mouse tumor assessed per volume of tissue at 7.4 MBq, iv after 4 hrs; format: ADME, organism-based, Neoplasm; settings: in vivo
Mus musculus [12] = experiment: Biodistribution in mouse B16F10 cells bearing C57B16 mouse tumor assessed per volume of tissue at 7.4 MBq, iv after 2 hrs; format: ADME, organism-based, Neoplasm, B16-F10; settings: in vivo
Mus musculus [13] = experiment: Biodistribution in mouse B16F0 cells bearing C57B16 mouse tumor assessed per volume of tissue at 7.4 MBq, iv after 2 hrs; format: ADME, organism-based, Neoplasm; settings: in vivo
Mus musculus [14] = experiment: Biodistribution in mouse B16F0 cells bearing iv dosed C57B16 mouse tumor assessed as absorption dose; format: ADME, organism-based, Neoplasm; settings: in vivo
[15] = Antitumor activity against mouse B16F0 cells bearing C57B16 mouse assessed as inhibition of tumor growth doubling time at 18.5 MBq, iv administered 2 times on day 6 and 10; format: functional
Mus musculus [16] = experiment: Biodistribution in mouse B16F0 cells bearing C57B16 mouse throat at 2.7 MBq, iv after 1 hr; format: ADME, organism-based; settings: in vivo
[17] = Biodistribution in mouse B16F0 cells bearing C57B16 mouse feces at 2.7 MBq, iv after up to 72 hrs; format: ADME, organism-based; settings: in vivo
Nucleic Acid [18] = experiment: Ratio of drug uptake in tumor to muscle in mouse B16F0 cells bearing C57B16 mouse at 2.7 MBq, iv after 1 hr; format: ADME, organism-based; settings: in vivo
Nucleic Acid [19] = experiment: Ratio of drug uptake in tumor to muscle in mouse B16F0 cells bearing C57B16 mouse at 2.7 MBq, iv after 3 hrs; format: ADME, organism-based; settings: in vivo
[20] = Biodistribution in mouse B16F0 cells bearing C57B16 mouse feces at 2.7 MBq, iv after up to 24 hrs; format: ADME, organism-based; settings: in vivo
Mus musculus [21] = experiment: Biodistribution in mouse B16F0 cells bearing C57B16 mouse throat at 2.7 MBq, iv after 10 days; format: ADME, organism-based; settings: in vivo, 240 h
[22] = Biodistribution in mouse B16F0 cells bearing C57B16 mouse urine at 2.7 MBq, iv after up to 24 hrs; format: ADME, organism-based; settings: in vivo
[23] = Biodistribution in mouse B16F0 cells bearing C57B16 mouse urine at 2.7 MBq, iv after up to 82 hrs; format: ADME, organism-based; settings: in vivo

Row | SMILES | Drug uptake (Mus musculus [1]) | Drug uptake (Mus musculus [2]) | Drug uptake (Mus musculus [3]) | Drug uptake (Mus musculus [4]) | Drug uptake (Mus musculus [5]) | Drug uptake (Mus musculus [6]) | Drug uptake (Mus musculus [7]) | Drug uptake (Mus musculus [8]) | Drug uptake (Mus musculus [9]) | other results
1 | CCN(CC)CCNC(=O)c1cnc2cc([125I])ccc2n1.Cl.Cl | 26.3 % ID/g | 21.8 % ID/g | 3.4 % ID/g | 12.3 % ID/g | 28 % ID/g | 7.3 % ID/g | 29.6 % ID/g | 1.9 % ID/g | – | –
2 | CCN(CCNC(=O)c1cnc2cc([125I])ccc2n1)CCc1ccnc(F)c1.Cl.Cl | 13.3 % ID/g | 12.1 % ID/g | 3 % ID/g | 7.7 % ID/g | 11.2 % ID/g | 5.2 % ID/g | 14.5 % ID/g | 1.6 % ID/g | 1.1 % ID/g | –
3 | CCN(CCNC(=O)c1cnc2cc(I)ccc2n1)CCOc1cccnc1[18F] | – | – | – | – | – | – | – | – | – | Drug uptake (Mus musculus [10]): 0.2 %ID; Drug uptake (Mus musculus [11]): 0.6 %ID; Drug uptake (Mus musculus [12]): 2.1 %ID; Drug uptake (Mus musculus [13]): 8.3 %ID
4 | CCN(CCNC(=O)c1ccnc(F)c1)CCNC(=O)c1cnc2cc([125I])ccc2n1.Cl.Cl | 8.8 % ID/g | 9.6 % ID/g | – | 9.6 % ID/g | 12.1 % ID/g | 5.1 % ID/g | 12.1 % ID/g | – | – | –
5 | CCN(CC)Cc1ccnc(F)c1CNC(=O)c1cnc2cc([125I])ccc2n1.Cl.Cl | 6.5 % ID/g | 5.6 % ID/g | 1.5 % ID/g | 4.1 % ID/g | 6.4 % ID/g | 2.4 % ID/g | 6.7 % ID/g | 0.8 % ID/g | 0.7 % ID/g | –
6 | CCN(CCNC(=O)c1cnc2cc([131I])ccc2n1)CCOc1cccnc1F.Cl.Cl | – | – | – | – | – | – | – | – | – | Drug uptake (Mus musculus [14]): 1.12 Gy/MBq; Time [15]: 3.8 days
7 | CCN(CCNC(=O)c1cccc2c(=O)c3cc([125I])ccc3[nH]c12)CCOc1cccnc1F.Cl | 13 % ID/g | 10.7 % ID/g | 4.3 % ID/g | 8.6 % ID/g | 16 % ID/g | 4.5 % ID/g | 13 % ID/g | 2.7 % ID/g | 2 % ID/g | –
8 | CCN(CCNC(=O)c1cn2cc([125I])ccc2n1)CCOc1cccnc1F.Cl.Cl | 13.1 % ID/g | 13.2 % ID/g | 3.9 % ID/g | 8.6 % ID/g | 15.6 % ID/g | 6.4 % ID/g | 13.4 % ID/g | 2.3 % ID/g | 1.6 % ID/g | –
9 | CCN(CCNC(=O)c1cnc2cc([125I])ccc2n1)CCNc1cccc(F)n1.Cl.Cl | 13.7 % ID/g | 13.1 % ID/g | 1.5 % ID/g | 5.7 % ID/g | 8.6 % ID/g | 2.6 % ID/g | 12.5 % ID/g | 0.8 % ID/g | 0.4 % ID/g | –
10 | CCN(CCNC(=O)c1ccc2cc([125I])ccc2c1)CCOc1cccnc1F.Cl | 8 % ID/g | 7.9 % ID/g | 2.1 % ID/g | – | 5.9 % ID/g | 2.8 % ID/g | 7.4 % ID/g | 0.2 % ID/g | 0.6 % ID/g | –
11 | CCN(CC)CCNC(=O)c1cnc2cc([131I])ccc2n1.Cl.Cl | – | – | – | – | – | – | – | – | – | Drug uptake (Mus musculus [14]): 1.71 Gy/MBq
12 | CCN(CCNC(=O)c1ccc2cc([125I])ccc2n1)CCOc1cccnc1F.Cl.Cl | 10.8 % ID/g | 10.7 % ID/g | 1.1 % ID/g | 3.2 % ID/g | 6.3 % ID/g | 2.3 % ID/g | 9.7 % ID/g | 0.4 % ID/g | 0.2 % ID/g | –
13 | CCN(CCNC(=O)c1ccc2cncc([125I])c2n1)CCOc1cccnc1F.Cl.Cl | 5.5 % ID/g | 5.6 % ID/g | 1.1 % ID/g | 3.3 % ID/g | 5.2 % ID/g | 1.6 % ID/g | 5.3 % ID/g | 0.5 % ID/g | 0.4 % ID/g | –
14 | CCN(CCNC(=O)c1cnc2cc([125I])ccc2n1)CCOc1cccnc1F.Cl.Cl | 20.2 % ID/g | 12.7 % ID/g | 3.2 % ID/g | 10.3 % ID/g | 18.2 % ID/g | 5.2 % ID/g | 18.8 % ID/g | 1.7 % ID/g | 0.6 % ID/g | Drug uptake (Mus musculus [16]): 1.5 %ID; Drug uptake [17]: 18.7 %ID; Ratio (Nucleic Acid [18]): 23; Ratio (Nucleic Acid [19]): 37; Drug uptake [20]: 36.1 %ID; Drug uptake (Mus musculus [21]): 0.1 %ID; Drug uptake [22]: 38.1 %ID; Drug uptake [23]: 45.1 %ID
15 | CCN(CCNC(=O)c1cccc2nc3cc([125I])ccc3nc12)CCOc1cccnc1F.Cl.Cl | 12.3 % ID/g | 11.4 % ID/g | 2 % ID/g | 5.8 % ID/g | 13.8 % ID/g | 3.7 % ID/g | 13.8 % ID/g | 1.2 % ID/g | 0.7 % ID/g | –
16 | CCN(CCNC(=O)c1cnc2cc([125I])ccc2n1)c1cccc(F)n1 | 2.2 % ID/g | 2 % ID/g | 0.2 % ID/g | 0.4 % ID/g | 0.9 % ID/g | 0.3 % ID/g | 1.8 % ID/g | – | – | –
17 | CCN(CCNC(=O)c1cnc2cc([125I])ccc2n1)Cc1ccnc(F)c1.Cl.Cl | 12 % ID/g | 10.3 % ID/g | – | 10 % ID/g | 16 % ID/g | 7.1 % ID/g | 15.4 % ID/g | 1.9 % ID/g | 0.8 % ID/g | –
18 | CCN(CCCc1ccnc(F)c1)CCNC(=O)c1cnc2cc([125I])ccc2n1.Cl.Cl | 9.3 % ID/g | 9.1 % ID/g | 2.5 % ID/g | 9.5 % ID/g | 16.3 % ID/g | 5.1 % ID/g | 14.1 % ID/g | 1.4 % ID/g | 0.7 % ID/g | –
